Measured values: patent US20090186088A1, “INHALABLE DRUG” (NanoMaterials Technology Pte Ltd, priority 2005, published 2009)

Key:
[1] = British Pharmacopoeia; cited from earlier work
[2] = type: physicochemical
Description: The aim of this experiment was to achieve a suspension containing fine Salbutamol sulfate precipitate. […] Alcohol (ethanol) therefore was considered to be the best choice, considering the safety of the possible solvents. The solubility of a solid is a function of the solid particle size according to Equation 1
where R is the gas constant, T the absolute temperature, S and Sr the solubility of large solid particles and of particles having small radius r respectively, and M, σ, and d are the molecular weight, surface tension, and density of the solid respectively. It will be appreciated from Eq. 1 that the solubility of a solid will increase as the particle size decreases. […] Consequently, when one considers the yield of the process, alcohol no longer appears suitable. […] Further, IPA is a commonly used organic solvent.

[3] = Dispersion experiments in multi-stage liquid impinger (MSLI), fine particle fraction; type: physicochemical; settings: beaker-synthesised powder, 60 L/min, 4 seconds
Description: The measurement of particle sizes in vitro allows a simplistic estimation of the aerodynamic particle size distribution. This process utilizes cascade or impactor devices such as the multi-stage liquid impinger (MSLI) (FIG. 7) to provide a breakdown of the particle size distribution through separation and collection of powder of different Da.
The MSLI consists of 5 stages which have been calibrated at 60 L/min to collect powder of a certain Da, known as the cut-off Da:
At flow rates of 60-100 L/min, the particles which have a Da of less than 5 μm are expected to be able to surpass oropharangeal deposition and the filter of the MSLI from equation 3. From the results of the MSLI, the FPF (fine particle fraction) can be calculated, and expressed as two different forms: […]
The recovery was also calculated for each dispersion which represents the mass of powder which was accounted for compared with the mass which was loaded into the capsules (Equation 6).
The equipment used to perform the dispersion experiments was the MSLI, which has been described earlier. […] The supernatant was then collected. • Step 11: All rinsings were collected into separately labeled glass vials and analyzed by UV immediately to minimize the effect of evaporation, which would produce an overestimation of the concentration collected.

| solubility in IPA [2] | reduction in FPF(emitted), Rotahaler vs Aeroliser [3] [%] | reduction in FPF(total), Rotahaler vs Aeroliser [3] [%] | Compound | solubility in alcohol [1] | solubility in ether [1] | solubility in water [1] | solubility in methylene chloride [1] |
| --- | --- | --- | --- | --- | --- | --- | --- |
|  |  |  | CC(C)(C)NCC(O)c1ccc(O)c(CO)c1 (stereo not shown) [Salbutamol base] | soluble | slightly soluble | sparingly soluble |  |
| somewhat lower than in alcohol | ~30 | ~20 | Salbutamol sulfate | slightly soluble | slightly soluble | freely soluble | very slightly soluble |
